Target: T1, hCCR4 (Homo sapiens, UniProt P51679)
T1 sequence (P51679 1-360): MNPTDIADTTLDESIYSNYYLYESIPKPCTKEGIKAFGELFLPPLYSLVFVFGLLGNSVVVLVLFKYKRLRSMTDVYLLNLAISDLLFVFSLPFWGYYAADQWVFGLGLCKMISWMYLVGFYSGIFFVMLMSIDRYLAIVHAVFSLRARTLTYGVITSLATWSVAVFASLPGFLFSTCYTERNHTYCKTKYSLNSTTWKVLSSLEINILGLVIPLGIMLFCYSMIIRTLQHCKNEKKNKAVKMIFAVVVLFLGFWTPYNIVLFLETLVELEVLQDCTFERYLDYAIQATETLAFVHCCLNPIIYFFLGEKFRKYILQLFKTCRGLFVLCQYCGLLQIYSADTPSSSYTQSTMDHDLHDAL
Assay: Calcium flux assay
Format: cell-based
Details: Chem5-hCCR4 cells, CCL22 at EC80 of 1.5 nM, FLIPR Calcium 6 dye; read-out: Potency (IC50)
How it was run: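 Chem5 cells expressing hCCR4 were serum-starved for 2 h, loaded with Calcium 6 dye plus 2.5 mM probenecid, then given compound for 1 h at 37 °C (0.5% DMSO). CCL22 was added from a 7.5 nM working solution (5× EC80 of 1.5 nM). IC50 came from ΔF/Fmin (485/525 nm) by 4-parameter fit.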

Row | SMILES | IC50
1 | Cc1nn([C@H](C)c2ccc(Cl)cc2Cl)c2nc(N3CC([C@H]4CCCN(CCO)C4)C3)ncc12 (single isomer, unassigned) [Example 38] | < 100 nM
2 | Cc1nn([C@H](C)c2ccc(Cl)cc2Cl)c2nc(N3CC([C@@H]4CCCN(CCO)C4)C3)ncc12 (single isomer, unassigned) [Example 39] | > 500 nM
3 | C[C@H](c1ccc(Cl)cc1Cl)n1nc(C(F)(F)F)c2ncc(N3CC([C@H]4CCCN(CCO)C4)C3)nc21 (single isomer, unassigned) [Example 43] | < 100 nM
4 | C[C@H](c1ccc(Cl)cc1Cl)n1nc(C(F)(F)F)c2ncc(N3CC([C@@H]4CCCN(CCO)C4)C3)nc21 (single isomer, unassigned) [Example 44] | 100 to 500 nM
5 | CC(C)C(=O)NCCN1CCC[C@H](C2CN(c3cnc4c(C(F)(F)F)nn([C@H](C)c5ccc(Cl)cc5Cl)c4n3)C2)C1 (single isomer, unassigned) [Example 52] | < 100 nM
6 | CC(=O)NCCN1CCC[C@@H](C2CN(c3cnc4c(C(F)(F)F)nn([C@H](C)c5ccc(Cl)cc5Cl)c4n3)C2)C1 (single isomer, unassigned) [Example 53] | 100 to 500 nM
7 | CNC(=O)CCCN1CCC[C@@H](C2CN(c3cnc4c(C#N)nn([C@H](C)c5ccc(Cl)cc5Cl)c4n3)C2)C1 (single isomer, unassigned) [Example 68] | 100 to 500 nM
8 | CNC(=O)CCCN1CCC[C@H](C2CN(c3cnc4c(C#N)nn([C@H](C)c5ccc(Cl)cc5Cl)c4n3)C2)C1 (single isomer, unassigned) [Example 69] | < 100 nM
9 | C[C@H](c1ccc(Cl)cc1Cl)n1nc(C#N)c2ncc(N3CC([C@H]4CCCN(CC(C)(C)O)C4)C3)nc21 (single isomer, unassigned) [Example 71] | < 100 nM
10 | CCCN1CCC[C@@H](C2CN(c3cnc4c(C#N)nn([C@H](C)c5ccc(Cl)cc5Cl)c4n3)C2)C1 (single isomer, unassigned) [Example 72] | 100 to 500 nM
11 | C[C@H](c1ccc(Cl)cc1Cl)n1nc(C#N)c2ncc(N3CC([C@@H]4CCCN(CCCC(=O)N(C)C)C4)C3)nc21 (single isomer, unassigned) [Example 74] | 100 to 500 nM
12 | CC(C)N1CCC[C@@H](C2CN(c3cnc4c(C#N)nn([C@H](C)c5ccc(Cl)cc5Cl)c4n3)C2)C1 (single isomer, unassigned) [Example 76] | 100 to 500 nM
13 | CC(C)N1CCC[C@H](C2CN(c3cnc4c(C#N)nn([C@H](C)c5ccc(Cl)cc5Cl)c4n3)C2)C1 (single isomer, unassigned) [Example 77] | < 100 nM
14 | C[C@H](c1ccc(Cl)cc1Cl)n1nc(C#N)c2ncc(N3CC([C@H]4CCCN(CCCC(N)=O)C4)C3)nc21 (single isomer, unassigned) [Example 78] | < 100 nM
15 | C[C@H](c1ccc(Cl)cc1Cl)n1nc(C#N)c2ncc(N3CC([C@H]4CCCN(Cc5ncc[nH]5)C4)C3)nc21 (single isomer, unassigned) [Example 80] | < 100 nM
16 | COC(=O)NCCN1CCC[C@H](C2CN(c3cnc4c(C)nn([C@H](C)c5ccc(Cl)cc5Cl)c4n3)C2)C1 (single isomer, unassigned) [Example 84] | < 100 nM
17 | COC(=O)NCCN1CCC[C@@H](C2CN(c3cnc4c(C)nn([C@H](C)c5ccc(Cl)cc5Cl)c4n3)C2)C1 (single isomer, unassigned) [Example 85] | < 100 nM
18 | CC(=O)NCCN1CCC[C@@H](C2CN(c3cnc4c(C(F)(F)F)nn([C@H](C)c5ccc(Cl)cc5Cl)c4n3)C2)C1 (single isomer, unassigned) [Example 86] | 100 to 500 nM
19 | CC(=O)NCCN1CCCC(C2CN(c3cnc4c(C(F)(F)F)nn([C@H](C)c5ccc(Cl)cc5Cl)c4n3)C2)C1 (single isomer, unassigned) [Example 87] | < 100 nM
20 | CC(C)C(=O)NCCN1CCC[C@@H](C2CN(c3cnc4c(C(F)(F)F)nn([C@H](C)c5ccc(Cl)cc5Cl)c4n3)C2)C1 (single isomer, unassigned) [Example 88] | 100 to 500 nM
21 | CC(C)C(=O)NCCN1CCC[C@H](C2CN(c3cnc4c(C(F)(F)F)nn([C@H](C)c5ccc(Cl)cc5Cl)c4n3)C2)C1 (single isomer, unassigned) [Example 89] | < 100 nM
22 | Cc1nn([C@H](C)c2ccc(Cl)cc2Cl)c2nc(N3CC([C@H]4CCCN(CCNC(=O)C(C)C)C4)C3)cnc12 (single isomer, unassigned) [Example 90] | < 100 nM
23 | Cc1nn([C@H](C)c2ccc(Cl)cc2Cl)c2nc(N3CC([C@@H]4CCCN(CCNC(=O)C(C)C)C4)C3)cnc12 (single isomer, unassigned) [Example 91] | < 100 nM
24 | CC(=O)NCCN1CCC[C@@H](C2CN(c3cnc4c(C#N)nn([C@H](C)c5ccc(Cl)cc5Cl)c4n3)C2)C1 (single isomer, unassigned) [Example 93] | < 100 nM
25 | Cc1nn([C@H](C)c2ccc(Cl)cc2Cl)c2nc(N3CC(C4CCCN(CCNS(=O)(=O)C(C)C)C4)C3)cnc12 (single isomer, unassigned) [Example 97] | < 100 nM
26 | CC(=O)NCCN1CCC[C@H](C2CN(c3cnc4c(C)nn([C@H](C)c5ccc(Cl)cc5Cl)c4n3)C2)C1 (single isomer, unassigned) [Example 100] | < 100 nM
27 | C[C@H](c1ccc(Cl)cc1Cl)n1nc(C#N)c2ncc(N3CC([C@@H]4CCCN(CCCS(N)(=O)=O)C4)C3)nc21 (single isomer, unassigned) [Example 108] | 100 to 500 nM
28 | CC(C)S(=O)(=O)NCCN1CCC[C@H](C2CN(c3cnc4c(C(F)(F)F)nn([C@H](C)c5ccc(Cl)cc5Cl)c4n3)C2)C1 (single isomer, unassigned) [Example 109] | < 100 nM
29 | CC(C)S(=O)(=O)NCCN1CCC[C@@H](C2CN(c3cnc4c(C(F)(F)F)nn([C@H](C)c5ccc(Cl)cc5Cl)c4n3)C2)C1 (single isomer, unassigned) [Example 110] | 100 to 500 nM

Continued, values first:

Row | IC50 | SMILES
30 | < 100 nM | C[C@H](c1ccc(Cl)cc1Cl)n1nc(C#N)c2ncc(N3CC(C4CCCN(CCO)C4)C3)nc21 (single isomer, unassigned) [Example 35]
31 | < 100 nM | CC(c1ccc(Cl)cc1Cl)n1nc(C#N)c2ncc(N3CC([C@@H]4CCCN(CCO)C4)C3)nc21 (single isomer, unassigned) [Example 36]
32 | 100 to 500 nM | CC(C)C(=O)NCCN1CCC[C@@H](C2CN(c3cnc4c(C(F)(F)F)nn([C@H](C)c5ccc(Cl)cc5Cl)c4n3)C2)C1 (single isomer, unassigned) [Example 51]
33 | < 100 nM | CC(=O)NCCN1CCC[C@H](C2CN(c3cnc4c(C(F)(F)F)nn([C@H](C)c5ccc(Cl)cc5Cl)c4n3)C2)C1 (single isomer, unassigned) [Example 54]
34 | < 100 nM | C[C@H](c1ccc(Cl)cc1Cl)n1nc(C#N)c2ncc(N3CC([C@@H]4CCCN(CC(C)(C)O)C4)C3)nc21 (single isomer, unassigned) [Example 70]
35 | < 100 nM | CCCN1CCC[C@H](C2CN(c3cnc4c(C#N)nn([C@H](C)c5ccc(Cl)cc5Cl)c4n3)C2)C1 (single isomer, unassigned) [Example 73]
36 | < 100 nM | C[C@H](c1ccc(Cl)cc1Cl)n1nc(C#N)c2ncc(N3CC([C@H]4CCCN(CCCC(=O)N(C)C)C4)C3)nc21 (single isomer, unassigned) [Example 75]
37 | 100 to 500 nM | C[C@H](c1ccc(Cl)cc1Cl)n1nc(C#N)c2ncc(N3CC([C@@H]4CCCN(CCCC(N)=O)C4)C3)nc21 (single isomer, unassigned) [Example 79]
38 | 100 to 500 nM | C[C@H](c1ccc(Cl)cc1Cl)n1nc(C#N)c2ncc(N3CC([C@@H]4CCCN(Cc5ncc[nH]5)C4)C3)nc21 (single isomer, unassigned) [Example 81]
39 | < 100 nM | CC(=O)NCCN1CCC[C@H](C2CN(c3cnc4c(C#N)nn([C@H](C)c5ccc(Cl)cc5Cl)c4n3)C2)C1 (single isomer, unassigned) [Example 92]
40 | 100 to 500 nM | C[C@H](c1ccc(Cl)cc1Cl)n1nc(C#N)c2ncc(N3CC([C@@H]4CCN(CCCO)C4)C3)nc21 (single isomer, unassigned) [Example 94]
41 | < 100 nM | C[C@H](c1ccc(Cl)cc1Cl)n1nc(C#N)c2ncc(N3CC([C@H]4CCN(CCCO)C4)C3)nc21 (single isomer, unassigned) [Example 95]
42 | 100 to 500 nM | Cc1nn([C@H](C)c2ccc(Cl)cc2Cl)c2nc(N3CC([C@@H]4CCCN(CCNS(=O)(=O)C(C)C)C4)C3)cnc12 (single isomer, unassigned) [Example 96]
43 | 100 to 500 nM | Cc1nn([C@H](C)c2ccc(Cl)cc2Cl)c2nc(N3CC([C@@H]4CCCN(CCNS(C)(=O)=O)C4)C3)cnc12 (single isomer, unassigned) [Example 98]
44 | < 100 nM | Cc1nn([C@H](C)c2ccc(Cl)cc2Cl)c2nc(N3CC([C@H]4CCCN(CCNS(C)(=O)=O)C4)C3)cnc12 (single isomer, unassigned) [Example 99]
45 | < 100 nM | CC(=O)NCCN1CCC[C@@H](C2CN(c3cnc4c(C)nn([C@H](C)c5ccc(Cl)cc5Cl)c4n3)C2)C1 (single isomer, unassigned) [Example 101]
46 | < 100 nM | C[C@H](c1ccc(Cl)cc1Cl)n1nc(C#N)c2ncc(N3CC([C@H]4CCCN(CCCS(N)(=O)=O)C4)C3)nc21 (single isomer, unassigned) [Example 107]

Reference: patent US10604526B2, “Chemokine receptor modulators and uses thereof” (RAPT THERAPEUTICS, INC., priority 2016, dated 2020)
